According to PubChem BioAssay (NCI):
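Briefly, cells in 96-well plates were exposed to five compound concentrations for 48 h, and endpoints were estimated by linear interpolation. GI50 marks 50% less growth. At the TGI there is no net growth.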

Key:
Assay in all cases: inhibition of tumour cell growth, NCI panel, 48 h
MDA-N = system: MDA-N
SF-295 CNS = system: SF-295 CNS
HS 578T breast = system: HS 578T breast
HCT-15 colon = system: HCT-15 colon
DU-145 prostate = system: DU-145 prostate
PC-3 prostate = system: PC-3 prostate
HOP-62 NSCLC = system: HOP-62 NSCLC
SK-MEL-2 melanoma = system: SK-MEL-2 melanoma
UO-31 renal = system: UO-31 renal
MDA-MB-231 breast = system: MDA-MB-231 breast
T-47D breast = system: T-47D breast

Row | Compound | TGI (MDA-N) | TGI (SF-295 CNS) | TGI (HS 578T breast) | TGI (HCT-15 colon) | TGI (DU-145 prostate) | TGI (PC-3 prostate) | TGI (HOP-62 NSCLC) | TGI (SK-MEL-2 melanoma) | TGI (UO-31 renal) | TGI (MDA-MB-231 breast) | TGI (T-47D breast) | GI50 (HCT-15 colon) | GI50 (DU-145 prostate) | GI50 (PC-3 prostate) | GI50 (T-47D breast) | GI50 (HOP-62 NSCLC) | GI50 (SK-MEL-2 melanoma) | GI50 (UO-31 renal) | GI50 (MDA-MB-231 breast)
1 | O=c1cc(-c2cccc(Cl)c2)[nH]c2ncccc12 | 0.0374 µM | 0.438 µM | 13 µM | > 100 µM | > 100 µM | 0.0694 µM | 33.4 µM | > 86.5 µM | > 54 µM | – | – | – | – | – | – | – | – | – | –
2 | COc1cccc(/C=C2/Sc3scc(-c4ccccc4)[n+]3C2=O)c1O | – | > 100 µM | > 100 µM | 29.9 µM | 56.9 µM | > 100 µM | 68.4 µM | 89.8 µM | 26.9 µM | 79.2 µM | – | – | – | – | – | – | – | – | –
3 | COC(=O)c1c2n(c3ccccc13)C[C@H]1OC(C)(C)O[C@@H]21 | – | > 100 µM | > 100 µM | > 100 µM | > 100 µM | > 100 µM | > 100 µM | > 100 µM | > 100 µM | > 100 µM | > 100 µM | – | – | – | – | – | – | – | –
4 | COc1cc(OC)c(/C=C2\N=C(C)N(Nc3nnc(NN4C(=O)/C(=C/c5c(OC)cc(OC)cc5OC)N=C4C)c4ccccc34)C2=O)c(OC)c1 | – | > 100 µM | – | > 100 µM | – | – | > 100 µM | – | – | – | – | – | – | – | – | – | – | – | –
5 | CN(CCO)c1nc2c(c(=O)[nH]1)CCC2 | – | > 100 µM | – | > 100 µM | – | – | > 100 µM | > 100 µM | > 100 µM | – | – | – | – | – | – | – | – | – | –
6 | COc1cc2cc(C(=O)N3CC(CCl)c4ccc(O)cc43)[nH]c2c(OC)c1OC (centres undefined) | – | 0.00398 µM | 0.0588 µM | 0.0412 µM | 0.661 µM | – | – | 0.00468 µM | 0.0429 µM | 0.0134 µM | 0.547 µM | – | – | – | – | – | – | – | –
7 | Cc1ccccc1N=Nc1ccc(N=Nc2c(O)ccc3ccccc23)c(C)c1 | – | > 100 µM | > 100 µM | > 100 µM | > 100 µM | > 100 µM | > 100 µM | > 100 µM | > 100 µM | > 100 µM | > 100 µM | – | – | – | – | – | – | – | –
8 | C[C@@H]1CC[C@H]2C(COCCOCC3=C(C(F)(F)F)O[C@@H]4O[C@@]5(C)CC[C@H]6[C@H](C)CC[C@@H]3[C@@]46OO5)=C(C(F)(F)F)O[C@@H]3O[C@@]4(C)CC[C@@H]1[C@]32OO4 | – | – | > 100 µM | > 13.8 µM | > 100 µM | > 100 µM | > 100 µM | > 100 µM | > 100 µM | > 15.8 µM | > 94.6 µM | 0.0264 µM | > 100 µM | < 0.01 µM | < 0.014 µM | > 24 µM | > 100 µM | 0.186 µM | 1.97 µM
9 | N#Cc1c(N)oc(-c2cccc([N+](=O)[O-])c2)c1C#N | – | > 100 µM | > 100 µM | 30.7 µM | > 100 µM | > 100 µM | – | > 100 µM | 30.8 µM | > 100 µM | > 100 µM | – | – | – | – | – | – | – | –
10 | CC12NN=NC1C(=O)NC2=O (centres undefined) | – | > 100 µM | – | > 100 µM | – | – | > 100 µM | > 100 µM | > 100 µM | – | – | – | – | – | – | – | – | – | –
11 | COc1ccc(-c2c(N)n(-c3nc4ccccc4s3)c(=O)c3cc([N+](=O)[O-])ccc23)cc1 | > 100 µM | 97.1 µM | 37.3 µM | > 100 µM | – | > 100 µM | 27 µM | > 100 µM | 46.7 µM | 48.7 µM | – | – | – | – | – | – | – | – | –
12 | C/C(=N\Nc1nc2ccccc2s1)c1ncccn1 | – | 3.78 µM | > 37.2 µM | 2.45 µM | > 100 µM | 11.1 µM | 5.78 µM | 4.46 µM | 0.395 µM | > 64.6 µM | > 100 µM | – | – | – | – | – | – | – | –
13 | NC(N)=N/N=C/c1c(-c2ccccc2)nc2n1ccc1nc(-c3ccccc3)c(/C=N/N=C(N)N)n12 | – | > 100 µM | > 100 µM | > 100 µM | > 100 µM | > 100 µM | > 100 µM | > 100 µM | > 100 µM | > 100 µM | > 100 µM | – | – | – | – | – | – | – | –
14 | CN(C)CCCNC(=O)N/N=C/c1cccc([N+](=O)[O-])c1 | – | > 100 µM | – | > 100 µM | – | – | – | > 100 µM | – | – | – | – | – | – | – | – | – | – | –
15 | CCCCCCNC(=O)c1cnc(Cl)cn1 | – | 39.4 µM | 44.4 µM | 7.25 µM | 29.6 µM | 22.8 µM | 34.3 µM | 31 µM | 3.24 µM | 32.4 µM | > 100 µM | – | – | – | – | – | – | – | –
16 | CCO[C@]12C[C@H](OC)[C@@]3(O)CC(C1[C@H]3OCc1ccccc1)C13C4C2[C@H](OC)C1[C@](COC)(CN4CC)[C@H](O)C[C@@H]3OC (some centres undefined) | – | – | – | > 100 µM | – | – | > 100 µM | – | > 100 µM | – | – | – | – | – | – | – | – | – | –
17 | C=C1CC2OC2(C(=O)O[C@H]2CCC3[C@@H]4CCC5=CC(=O)CC[C@]5(C)C4CC[C@@]32C)C1=O (some centres undefined) | – | 42.8 µM | 45.1 µM | 23.1 µM | 32.9 µM | – | 44.4 µM | 15.1 µM | 15.4 µM | – | 14.2 µM | – | – | – | – | – | – | – | –
18 | CNC(=O)N1CN(c2ccccc2)C2(CCN(CCCC(=O)c3ccc(F)cc3)CC2)C1=O | – | 31 µM | – | 33.6 µM | > 100 µM | > 100 µM | 22.8 µM | – | 28.1 µM | 90.3 µM | 33.8 µM | – | – | – | – | – | – | – | –
19 | O=C(Cn1c2c(c3ccccc31)CCCC2)NC1CCCCC1 | > 100 µM | > 100 µM | > 100 µM | > 100 µM | – | > 100 µM | > 100 µM | > 100 µM | > 100 µM | – | – | – | – | – | – | – | – | – | –
